Measurements from ChEMBL document CHEMBL1141457, “N-methyl-D-aspartate antagonists and neuropathic pain: the search for relief” (2007).

Key:
Homo sapiens [1] = species on record: Homo sapiens; assay: Reduction in post-surgical neuropathic pain intensity in cancer patient; type: functional; parameters: scale not given: the % may be the effect or the level left
Homo sapiens [2] = species on record: Homo sapiens; assay: Reduction in pain intensity in diabetic neuropathy patient; type: functional; parameters: scale not given: the % may be the effect or the level left

SMILES: NC12CC3CC(CC(C3)C1)C2 [AMANTADINE]
- Activity (Homo sapiens [1]): 31%

SMILES: COc1ccc2c(c1)[C@]13CCCC[C@@H]1[C@H](C2)N(C)CC3 [DEXTROMETHORPHAN]
- Activity (Homo sapiens [2]): 24%
